From patent US7183277B2, “Carboxylic acid amides” (Merck Patent GmbH, priority 2002, dated 2007)
pIC50: −log10 of the molar value. Structures can show the parent of a compound that is named as a salt.

Assays:
[1] = molecular target: FXa (Homo sapiens, UniProt P00742); assay: Factor Xa inhibition (FXa-IC50); assay type: biochemical
Text: The inhibition of factor Xa by the compounds according to the invention and the measurement of the anticoagulant and antithrombotic activity can be determined by conventional in-vitro or in-vivo methods. A suitable method is described, for example, by J. Hauptmann et al. in Thrombosis and Haemostasis 1990, 63, 220–223.
The inhibition of factor Xa can be measured, for example, by the method of T. Hara et al. in Thromb. Haemostas. 1994, 71, 314–319.

[2] = molecular target: TF/FVIIa (Homo sapiens, UniProt P08709); assay: TF/FVIIa inhibition (TF/FVIIa-IC50); assay type: biochemical
TF/FVIIa, sequence (P08709 213-466 limits assumed): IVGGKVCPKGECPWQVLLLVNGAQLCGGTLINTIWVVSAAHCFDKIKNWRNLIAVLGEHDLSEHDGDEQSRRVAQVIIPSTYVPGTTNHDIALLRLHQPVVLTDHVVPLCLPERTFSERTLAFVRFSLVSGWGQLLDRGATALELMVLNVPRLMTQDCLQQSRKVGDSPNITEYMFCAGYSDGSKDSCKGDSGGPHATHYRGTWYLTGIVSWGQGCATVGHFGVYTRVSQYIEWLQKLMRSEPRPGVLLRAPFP
TF/FVIIa, sequence (P08709 61-212 partner limits assumed): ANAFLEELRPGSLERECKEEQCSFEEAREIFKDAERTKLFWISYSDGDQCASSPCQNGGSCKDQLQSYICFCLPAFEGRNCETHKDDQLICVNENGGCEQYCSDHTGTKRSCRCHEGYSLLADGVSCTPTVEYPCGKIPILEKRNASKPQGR
TF/FVIIa, sequence (P13726 33-295 partner): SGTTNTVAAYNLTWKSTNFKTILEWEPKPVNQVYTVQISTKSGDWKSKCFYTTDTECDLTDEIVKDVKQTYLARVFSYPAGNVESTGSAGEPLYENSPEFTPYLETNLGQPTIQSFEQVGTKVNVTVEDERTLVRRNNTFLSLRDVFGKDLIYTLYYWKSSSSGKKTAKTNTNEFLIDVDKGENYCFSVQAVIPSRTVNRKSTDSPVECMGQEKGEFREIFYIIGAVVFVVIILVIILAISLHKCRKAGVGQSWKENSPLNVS
Text: The inhibition of factor VIIa by the compounds according to the invention and the measurement of the anticoagulant and antithrombotic activity can be determined by conventional in-vitro or in-vivo methods. A conventional method for the measurement of the inhibition of factor VIIa is described, for example, by H. F. Ronning et al. in Thrombosis Research 1996, 84, 73–81.

FXa, sequence (P00742 235-488 limits assumed): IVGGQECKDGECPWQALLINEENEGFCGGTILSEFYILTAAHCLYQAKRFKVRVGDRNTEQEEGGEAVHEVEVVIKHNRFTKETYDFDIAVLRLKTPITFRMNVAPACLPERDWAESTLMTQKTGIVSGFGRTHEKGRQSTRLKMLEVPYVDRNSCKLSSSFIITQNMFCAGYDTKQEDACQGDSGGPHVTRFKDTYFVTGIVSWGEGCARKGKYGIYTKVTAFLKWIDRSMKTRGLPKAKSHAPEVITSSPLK
FXa, sequence (P00742 41-179 partner limits assumed): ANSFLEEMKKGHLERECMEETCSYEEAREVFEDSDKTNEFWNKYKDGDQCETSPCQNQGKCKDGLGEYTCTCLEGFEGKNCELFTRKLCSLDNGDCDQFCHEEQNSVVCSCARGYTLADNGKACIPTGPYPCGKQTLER

pIC50 [1]	pIC50 [2]	Structure (SMILES)
7.24	7.00	N=C1CCCCN1c1ccc(NC(=O)[C@H](OC(=O)Nc2ccc(Cl)cc2)c2ccccc2)cc1 [AB, (R)-2-[N-(4-chlorophenyl)carbamoyloxy]-N-[4-(2-iminopiperidin-1-yl)phenyl]-2-phenylacetamid, hydrochloride]
6.66	6.54	CON=C1CCCCN1c1ccc(NC(=O)[C@H](OC(=O)Nc2ccc(Cl)cc2)c2ccccc2)cc1 [AA, (R)-2-[N-(4-chlorophenyl)carbamoyloxy]-N-[4-(2-methoxyiminopiperidin-1-yl)phenyl]-2-phenylacetamide]
6.17	6.31	Cc1cc(NC(=O)[C@H](NC(=O)Nc2ccc(Cl)cc2)c2ccccc2)ccc1N1CCCC1=N [BA, (R)-2-[3-(4-chlorophenyl)ureido]-N-[4-(2-iminopyrrolidin-1-yl)-3-methylphenyl]-2-phenylacetamide, hydrochloride]
7.27		N#CN=C1NCCN1c1ccc(NC(=O)[C@@H](NC(=O)Nc2ccc(Cl)cc2)c2cccs2)cc1 [CA, (R)-2-[3-(4-chlorophenyl)ureido]-N-[4-(2-cyaniminoimidazolidin-1-yl)phenyl]-2-thiophen-2-ylacetamide]
